Target: T1, Human Polθ polymerase domain (aa1820-2590) (Homo sapiens, UniProt O75417)
T1 construct: Human Polθ polymerase domain (aa1820-2590) was expressed in E. coli; made in house; host or cells: E. coli
T1 sequence (O75417 1820-2590): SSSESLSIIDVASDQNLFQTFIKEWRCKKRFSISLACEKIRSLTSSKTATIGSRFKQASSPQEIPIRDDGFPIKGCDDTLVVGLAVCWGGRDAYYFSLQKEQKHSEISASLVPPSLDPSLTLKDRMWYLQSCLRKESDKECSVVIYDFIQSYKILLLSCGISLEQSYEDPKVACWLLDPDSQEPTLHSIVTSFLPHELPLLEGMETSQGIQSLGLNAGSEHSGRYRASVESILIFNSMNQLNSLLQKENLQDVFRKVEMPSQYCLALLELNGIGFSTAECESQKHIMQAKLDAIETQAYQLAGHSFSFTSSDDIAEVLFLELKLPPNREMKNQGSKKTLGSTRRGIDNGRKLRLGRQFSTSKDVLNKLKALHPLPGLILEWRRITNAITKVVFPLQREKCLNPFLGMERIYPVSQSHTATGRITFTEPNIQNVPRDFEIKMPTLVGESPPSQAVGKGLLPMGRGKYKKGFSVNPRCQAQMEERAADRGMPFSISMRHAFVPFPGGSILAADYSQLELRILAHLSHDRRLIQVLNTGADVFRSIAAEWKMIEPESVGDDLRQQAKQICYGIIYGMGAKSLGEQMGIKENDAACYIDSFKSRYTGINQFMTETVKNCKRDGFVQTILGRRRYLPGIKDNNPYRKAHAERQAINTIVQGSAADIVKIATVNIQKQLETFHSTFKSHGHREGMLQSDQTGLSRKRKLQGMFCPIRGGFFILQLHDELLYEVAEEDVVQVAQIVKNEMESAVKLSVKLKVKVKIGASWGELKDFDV
Assay: Polθ Polymerase Domain Kinact/KI Assay (PicoGreen)
Format: biochemical
Conditions: 0.8 nM Polθ, 100 nM DNA substrate, kobs vs [I] fit for 2-step covalent inhibitor
Summary of the method: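 Enzyme 0.8 nM, annealed DNA substrate 100 nM, […]; 25 mM Tris pH 7.5, 5% glycerol, 0.01% Triton X-100, 0.1 mg/ml BSA, 1 mM DTT, 1% DMSO. Quench with EDTA at timepoints to 60 min; PicoGreen read. kobs from time courses → Kinact/KI.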

Going from `C=CC(=O)N1Cc2ncc(CN3C[C@H]4CC(=O)N(c5cc(C(F)(F)F)cc(C)n5)[C@@H]4C(=O)N(C)c4cccc(Cl)c43)nc2C1` [Example 229, (3aR,11aS)-5-((6-acryloyl-6,7-dihydro-5H-pyrrolo[3,4-b]pyrazin-2-yl)methyl)-6-chloro-10-methyl-1-(6-methyl-4-(trifluoromethyl)pyridin-2-yl)-1,3a,4,5,10,11a-hexahydro-2H-benzo[b]pyrrolo[2,3-f][1,4]diazocine-2,11(3H)-dione] to `C=CC(=O)N1Cc2nc(CN3C[C@H]4CC(=O)N(c5cc(C(F)(F)F)cc(C)n5)[C@@H]4C(=O)N(C)c4cccc(Cl)c43)n(C)c2C1` [Example 242, (3aR,11aS)-5-((5-acryloyl-1-methyl-1,4,5,6-tetrahydropyrrolo[3,4-d]imidazol-2-yl)methyl)-6-chloro-10-methyl-1-(6-methyl-4-(trifluoromethyl)pyridin-2-yl)-1,3a,4,5,10,11a-hexahydro-2H-benzo[b]pyrrolo[2,3-f][1,4]diazocine-2,11(3H)-dione], the Kinact/Kl falls from 0.73 µM⁻¹ s⁻¹ to 0.66 µM⁻¹ s⁻¹.

Compared with `C=CC(=O)N1Cc2nc(CN3C[C@H]4CC(=O)N(c5cc(C(F)(F)F)cc(C)n5)[C@@H]4C(=O)N(C)c4cccc(C)c43)ccc2C1CO` (stereo partly drawn) [Example 238, (3aR,11aS)-5-((6-acryloyl-5-(hydroxymethyl)-6,7-dihydro-5H-pyrrolo[3,4-b]pyridin-2-yl)methyl)-6,10-dimethyl-1-(6-methyl-4-(trifluoromethyl)pyridin-2-yl)-1,3a,4,5,10,11a-hexahydro-2H-benzo[b]pyrrolo[2,3-f][1,4]diazocine-2,11(3H)-dione], `C=CC(=O)N1Cc2nc(CN3C[C@H]4CC(=O)N(c5cc(C(F)(F)F)cc(C)n5)[C@@H]4C(=O)N(C)c4cccc(Cl)c43)ccc2C1CO` (stereo partly drawn) [Example 239, (3aR,11aS)-5-((6-acryloyl-5-(hydroxymethyl)-6,7-dihydro-5H-pyrrolo[3,4-b]pyridin-2-yl)methyl)-6-chloro-10-methyl-1-(6-methyl-4-(trifluoromethyl)pyridin-2-yl)-1,3a,4,5,10,11a-hexahydro-2H-benzo[b]pyrrolo[2,3-f][1,4]diazocine-2,11(3H)-dione] is lower in Kinact/Kl: 0.74 µM⁻¹ s⁻¹ for the first, 0.73 µM⁻¹ s⁻¹ for the second.

Compared with `C=CC(=O)N1Cc2ccc(CN3C[C@H]4CC(=O)N(c5cc(C(F)(F)F)cc(C)n5)[C@@H]4C(=O)N(C)c4cccc(C)c43)nc2C1` [Example 240, (3aR,11aS)-5-((6-acryloyl-6,7-dihydro-5H-pyrrolo[3,4-b]pyridin-2-yl)methyl)-6,10-dimethyl-1-(6-methyl-4-(trifluoromethyl)pyridin-2-yl)-1,3a,4,5,10,11a-hexahydro-2H-benzo[b]pyrrolo[2,3-f][1,4]diazocine-2,11(3H)-dione], `C=CC(=O)N1Cc2nc(CN3C[C@H]4CC(=O)N(c5cc(C(F)(F)F)cc(C)n5)[C@@H]4C(=O)N(C)c4cccc(C)c43)n(C)c2C1` [Example 241, (3aR,11aS)-5-((5-acryloyl-1-methyl-1,4,5,6-tetrahydropyrrolo[3,4-d]imidazol-2-yl)methyl)-6,10-dimethyl-1-(6-methyl-4-(trifluoromethyl)pyridin-2-yl)-1,3a,4,5,10,11a-hexahydro-2H-benzo[b]pyrrolo[2,3-f][1,4]diazocine-2,11(3H)-dione] is lower in Kinact/Kl: 1.55 µM⁻¹ s⁻¹ for the first, 1.28 µM⁻¹ s⁻¹ for the second.

Compared with `C=CC(=O)N1Cc2nc(CN3C[C@H]4CC(=O)N(c5cc(C(F)(F)F)cc(C)n5)[C@@H]4C(=O)N(C)c4cccc(Cl)c43)cn2CC1CO` (stereo partly drawn) [Example 244, (3aR,11aS)-5-((7-acryloyl-6-(hydroxymethyl)-5,6,7,8-tetrahydroimidazo[1,2-a]pyrazin-2-yl)methyl)-6-chloro-10-methyl-1-(6-methyl-4-(trifluoromethyl)pyridin-2-yl)-1,3a,4,5,10,11a-hexahydro-2H-benzo[b]pyrrolo[2,3-f][1,4]diazocine-2,11(3H)-dione], `C=CC(=O)N1CCOc2ccc(CN3C[C@H]4CC(=O)N(c5cc(C(F)(F)F)cc(C)n5)[C@@H]4C(=O)N(C)c4cccc(Cl)c43)cc21` [Example 250, (3aR,11aS)-5-((4-acryloyl-3,4-dihydro-2H-benzo[b][1,4]oxazin-6-yl)methyl)-6-chloro-10-methyl-1-(6-methyl-4-(trifluoromethyl)pyridin-2-yl)-1,3a,4,5,10,11a-hexahydro-2H-benzo[b]pyrrolo[2,3-f][1,4]diazocine-2,11(3H)-dione] is lower in Kinact/Kl: 3.83 µM⁻¹ s⁻¹ for the first, 0.53 µM⁻¹ s⁻¹ for the second.

Compared with `Cc1cc(C(F)(F)F)cc(N2C(=O)C[C@@H]3CN(Cc4ccc(NC(=O)/C=C/CN(C)C)c(F)c4)c4c(Cl)cccc4N(C)C(=O)[C@H]32)n1` [Example 245, (E)-N-(4-(((3aR,11aS)-6-chloro-10-methyl-1-(6-methyl-4-(trifluoromethyl)pyridin-2-yl)-2,11-dioxo-1,2,3,3a,4,10,11,11a-octahydro-5H-benzo[b]pyrrolo[2,3-f][1,4]diazocin-5-yl)methyl)-2-fluorophenyl)-4-(dimethylamino)but-2-enamide], `Cc1cc(C(F)(F)F)cc(N2C(=O)C[C@@H]3CN(Cc4ccc(NC(=O)/C=C/CN(C)C)cc4F)c4c(Cl)cccc4N(C)C(=O)[C@H]32)n1` [Example 246, (E)-N-(4-(((3aR,11aS)-6-chloro-10-methyl-1-(6-methyl-4-(trifluoromethyl)pyridin-2-yl)-2,11-dioxo-1,2,3,3a,4,10,11,11a-octahydro-5H-benzo[b]pyrrolo[2,3-f][1,4]diazocin-5-yl)methyl)-3-fluorophenyl)-4-(dimethylamino)but-2-enamide] is lower in Kinact/Kl: 1.90 µM⁻¹ s⁻¹ for the first, 0.42 µM⁻¹ s⁻¹ for the second.

First: Cc1cc(C(F)(F)F)cc(N2C(=O)C[C@@H]3CN(Cc4cccc(NC(=O)/C=C/CN(C)C)c4)c4c(Cl)cccc4N(C)C(=O)[C@H]32)n1 [Example 247, (E)-N-(3-(((3aR,11aS)-6-chloro-10-methyl-1-(6-methyl-4-(trifluoromethyl)pyridin-2-yl)-2,11-dioxo-1,2,3,3a,4,10,11,11a-octahydro-5H-benzo[b]pyrrolo[2,3-f][1,4]diazocin-5-yl)methyl)phenyl)-4-(dimethylamino)but-2-enamide]
Second: C=CC(=O)Nc1ccc(CN2C[C@H]3CC(=O)N(c4cc(C(F)(F)F)cc(C)n4)[C@@H]3C(=O)N(C)c3cccc(Cl)c32)cc1C#N [Example 248, N-(4-(((3aR,11aS)-6-chloro-10-methyl-1-(6-methyl-4-(trifluoromethyl)pyridin-2-yl)-2,11-dioxo-1,2,3,3a,4,10,11,11a-octahydro-5H-benzo[b]pyrrolo[2,3-f][1,4]diazocin-5-yl)methyl)-2-cyanophenyl)acrylamide]
The Kinact/Kl of the first is higher: 0.98 µM⁻¹ s⁻¹ for the first, 0.81 µM⁻¹ s⁻¹ for the second.

Compound `CC(=O)N1CCN(C/C=C/C(=O)Nc2ccc(CN3C[C@H]4CC(=O)N(c5cc(C(F)(F)F)cc(C)n5)[C@@H]4C(=O)N(C)c4cccc(C)c43)cc2)CC1` [Example 249, (E)-4-(4-acetylpiperazin-1-yl)-N-(4-(((3aR,11aS)-6,10-dimethyl-1-(6-methyl-4-(trifluoromethyl)pyridin-2-yl)-2,11-dioxo-1,2,3,3a,4,10,11,11a-octahydro-5H-benzo[b]pyrrolo[2,3-f][1,4]diazocin-5-yl)methyl)phenyl)but-2-enamide] has a Kinact/Kl of 0.11 µM⁻¹ s⁻¹.

Source: US20250230165A1, “HETEROCYCLIC COMPOUNDS FOR USE IN THE TREATMENT OF CANCER” (ARTIOS PHARMA LIMITED, priority 2021, published 2025)
